Source: US20180209956A1, “HTS Assay for Identifying Small Molecule Inhibitors of RAD52 and Uses of Identified Small Molecule Inhibitors for Treatment and Prevention of BRCA-Deficient Malignancies” (University of Iowa Research Foundation, priority 2015, published 2018)

Legend:
RPA = molecular target: T1, RPA (Homo sapiens, UniProt P15927+P27694+P35244); test: WaterLOGSY NMR analysis of compound binding to RPA; conditions: 20 or 40 μM compound, 3.3 μM RPA
T1 construct: made in house
Source text: Compounds ‘1’ and ‘6’ physically interact with RAD52: To confirm that the selected compounds bind RAD52, we employed water-ligand observation with gradient spectroscopy (WaterLOGSY), an NMR technique, which is based on transfer of magnetization from bulk water to the protein-bound compound of interest (Dalvit et al., 2001, Dalvit et al., 2000). In WaterLOGSY spectrum, if a compound binds to a protein, the compound will receive negative nuclear Overhauser effects (NOEs) due to the slow tumbling of the protein-compound complex, leading to a positive WaterLOGSY peak.
WaterLOGSY NMR analysis of the compound binding to RAD52 and RPA proteins: Compound binding to RAD52 and RPA proteins was analyzed using water-ligand observation with gradient spectroscopy (WaterLOGSY) NMR experiments (Dalvit et al., 2001, Dalvit et al., 2000). The WaterLOGSY spectra of compounds in the presence of RAD52 or RPA were acquired using a water NOE mixing time of 1 s and a T2 relaxation filter of 50 ms just before data acquisition to suppress the broad signals derived from protein. The protein buffer used in the experiments contains 10 mM Tris-d11, 75 mM KCl, 0.25 mM EDTA, pH 7.5, and 10% D20. All NMR data were acquired on a Bruker Avance II 800 MHz NMR spectrometer equipped with a sensitive cryoprobe and recorded at 25° C. The ^1H chemical shifts were referenced to 2,2-dimethyl-2-silapentane-5-sulfonate (DSS). NMR spectra were processed using NMR Pipe (Delaglio et al., 1995) and analysed using NMR View (Johnson and Blevins, 1994).

GM01604 cells = test: Neutral comet assay of RAD52/MUS81-dependent DSB formation; format: cell-based, human; conditions: for IC50 for decrease of mean tail moment following HU treatment, in words: 2 mM HU + 300 nM UCN01, 6 h
Source text: Inhibiting the RAD52-ssDNA interaction interferes with RAD52/MUS81-mediated DSB formation essential for the replication fork recovery in check point deficient cells: In human cells, RAD52 may perform both limited recombination-mediator function in the RAD51-dependent pathway (Lok and Powell, 2012, Benson et al., 1998, Feng et al., 2011) as well as additional RAD51-independent roles (Lok and Powell, 2012, Murfuni et al., 2013, Mcllwraith and West, 2008). One of these HR independent roles of RAD52 involves stimulation of MUS81/EME1-dependent DSB formation at the replication forks stalled by hydroxyurea (HU) treatment in the absence of cellular checkpoints (Murfuni et al., 2013). Since the most likely targets of these MUS81/EME1/RAD52-dependent DSBs are the DNA structures produced by RAD52 (Murfuni et al., 2013), we expected this activity to depend on the RAD52-ssDNA interaction (FIG. 5a). To confirm this, we assessed DSB formation in the checkpoint deficient cells using the neutral comet assay. These assays monitor MUS81/EME1/RAD52-dependent DSB formation upon induction of replication stress by HU treatment in primary fibroblasts immortalized by hTERT expression and treated with UNC01 to inhibit CHK1 kinase (FIG. 5b). […] Importantly, these inhibitors recapitulate RAD52 depletion by inhibiting RAD52-MUS81-dependent DSBs at stalled replication forks (FIG. 5a-b). […] It also confirms our previous supposition that the target of MUS81/EME1-mediated cleavage under these conditions are indeed the structures annealed by RAD52. […] We previously reported that concomitant depletion of RAD52 and MUS81 gives raise to the MUS81-independent DSBs (Murfuni et al., 2013). […] Furthermore, accumulation of anaphase bridges, a phenotype associated with impairment of the RAD52-independent mitotic function of MUS81/EME1 was completely unaffected by inhibition of RAD52, whereas it was strongly stimulated by MUS81 silencing (FIG. 5 Supplement 1).
Neutral Comet Assay: To induce RAD52-MUS81-dependent cleavage at arrested replication forks (Murfuni et al., 2013), hTERT-immortalized wild-type human fibroblasts (GM01604) were treated with 2 mM HU and 300 nM UCN01 for 6 h, in the presence and absence of varying concentrations of ‘1’ or ‘6’. Where indicated, the GM01604 cells were cells were transfected with siRNAs directed against GFP (Ctrl), or against RAD52 (Qiagen) 48 hours prior to induction of the replication stress and/or inhibitor treatment. After that cells were subjected to neutral comet assay as described in Murfuni et al (Murfuni et al., 2013). Slides were analyzed by a computerized image analysis system (Comet IV, Perceptive UK). To assess the quantity of DNA damage, computer-generated tail moment values (tail length×fraction of total DNA in the tail) were used. Apoptotic cells (smaller comet head and extremely larger comet tail) were excluded from the analysis to avoid artificial enhancement of tail moment. A minimum of 100 cells were analyzed for each compound concentration point.

RPA-ssDNA interaction = molecular target: T2, RPA-ssDNA interaction (Homo sapiens, UniProt P15927+P27694+P35244); test: FRET titration of the RPA-Cy3-dT30-Cy5 complex; format: binding
T2 construct: made in house
T2 sequence (P27694 whole entry): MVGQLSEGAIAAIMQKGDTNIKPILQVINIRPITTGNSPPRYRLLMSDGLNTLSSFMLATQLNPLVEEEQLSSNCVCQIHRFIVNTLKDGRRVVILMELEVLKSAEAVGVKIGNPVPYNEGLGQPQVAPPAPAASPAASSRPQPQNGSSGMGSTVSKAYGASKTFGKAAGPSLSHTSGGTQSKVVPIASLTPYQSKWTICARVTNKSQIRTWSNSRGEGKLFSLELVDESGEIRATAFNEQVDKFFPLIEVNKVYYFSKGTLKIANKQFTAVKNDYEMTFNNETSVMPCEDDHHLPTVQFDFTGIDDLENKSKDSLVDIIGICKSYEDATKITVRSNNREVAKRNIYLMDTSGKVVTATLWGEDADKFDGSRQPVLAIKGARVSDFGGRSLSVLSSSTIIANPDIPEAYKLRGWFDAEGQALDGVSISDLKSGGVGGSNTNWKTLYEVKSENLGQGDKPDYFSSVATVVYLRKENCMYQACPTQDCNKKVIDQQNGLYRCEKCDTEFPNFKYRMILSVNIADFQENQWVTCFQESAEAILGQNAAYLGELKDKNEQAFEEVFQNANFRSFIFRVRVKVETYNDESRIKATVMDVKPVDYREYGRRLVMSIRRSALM
T2 sequence (P15927 whole entry): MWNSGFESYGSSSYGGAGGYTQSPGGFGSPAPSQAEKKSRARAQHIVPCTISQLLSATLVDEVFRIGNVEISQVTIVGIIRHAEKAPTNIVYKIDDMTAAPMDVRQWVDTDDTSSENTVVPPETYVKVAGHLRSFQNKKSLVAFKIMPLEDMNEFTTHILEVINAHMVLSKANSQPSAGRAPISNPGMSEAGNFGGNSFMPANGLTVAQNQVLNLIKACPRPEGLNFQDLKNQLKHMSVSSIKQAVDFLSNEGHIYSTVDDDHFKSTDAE
T2 sequence (P35244 whole entry): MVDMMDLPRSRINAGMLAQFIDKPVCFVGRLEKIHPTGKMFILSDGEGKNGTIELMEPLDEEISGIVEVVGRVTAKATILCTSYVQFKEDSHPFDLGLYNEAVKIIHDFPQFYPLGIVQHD
Source text: Compounds ‘1’ and ‘6’ inhibit RAD52 binding to and annealing of the RPA-coated ssDNA: In the cell, ssDNA is typically found in complex with Replication protein A (RPA), which is the major eukaryotic ssDNA-binding protein essential for DNA replication, repair and recombination (Wold, 1997, Oakley and Patrick, 2010, Chen and Wold, 2014). The RPA-ssDNA complex is a natural substrate for the RDA52-mediated strand annealing. To confirm that compounds ‘1’ and ‘6’ can inhibit the RAD52 binding to and annealing of the RPA-coated ssDNA we added stoichiometric amounts of RPA (1 RPA per 30 nucleotides of ssDNA) to the FRET-based ssDNA binding/wrapping and ssDNA annealing experiments described above. RPA binds ssDNA with high affinity and extends the ssDNA to its contour length. In our assays such an extension manifests as a distinct FRET state of ˜0.3, which is readily distinguished from a FRET state of ˜0.48 of free Cy3-dT30-Cy5 ssDNA, as well as ˜0.63 FRET of the stoichiometric ssDNA-RPA-RAD52 complex (see FIG. 2 Supplement 1 and (Grimme and Spies, 2011) for details). […] Both, however, inhibited the RAD52 binding to and wrapping of RPA-coated ssDNA with IC50 values identical to those determined without RPA (FIG. 2e and FIG. 3e).
where FRET0 is the initial FRET value of RAD52-ssDNA complex in the absence of the compound and FRETmin is the FRET value at complete inhibition. FRET values were calculated as an average of three or more independent annealing reactions plotted against the concentration of the compound. Inhibition of the RAD52-dsDNA interaction was assayed in a similar experiment, except the stoichiometric complexes containing 1 nM molecules of Cy3-Oligo28-Cy5 duplex DNA and 10 nM RAD52. […] In all experiments, the FRET values for each data point were corrected for the effects of the compounds on the respective substrate in the absence of RAD52.

T1 sequence (P27694 whole entry): as the sequence (P27694 whole entry) above
T1 sequence (P15927 whole entry): as the sequence (P15927 whole entry) above
T1 sequence (P35244 whole entry): as the sequence (P35244 whole entry) above

Structure (SMILES): O=C(O[C@@H]1Cc2c(O)cc(O)cc2O[C@@H]1c1cc(O)c(O)c(O)c1)c1cc(O)c(O)c(O)c1 [Compound 6, Epigallocatechin-3-monogallate]
- Binding to RPA by WaterLOGSY (RPA): binds to RPA
- IC50 for decrease of mean tail moment following HU treatment, in words (GM01604 cells): mid nanomolar to low micromolar
- Concentration sufficient to achieve the same level in DSB reduction as siRNA treatment (GM01604 cells; HU + UCN01): higher concentration
- DSB formation in RAD52-depleted cells (GM01604 cells; RAD52 siRNA plus compound): failed to further decrease the formation of DNA breaks
- Effect on the RPA-ssDNA interaction (RPA-ssDNA interaction): does not interfere with the RPA-ssDNA interaction

Structure (SMILES): Oc1cc(O)c2c(c1)O[C@H](c1cc(O)c(O)c(O)c1)[C@H](O)C2 [Compound ‘1’, (−)-Epigallocatechin]
- Binding to RPA by WaterLOGSY (RPA): neither binds to RPA
- Reduction in DSBs compared with siRNA depletion of RAD52 (GM01604 cells; 500 nM compound, HU + UCN01): same effect of reduction in DSBs as siRNA depletion of RAD52
- IC50 for decrease of mean tail moment following HU treatment, in words (GM01604 cells): mid nanomolar to low micromolar
- Concentration sufficient to achieve the same level in DSB reduction as siRNA treatment (GM01604 cells; HU + UCN01): 1 µM
- DSB formation in MUS81-depleted cells (GM01604 cells; replication stress induced by CHK1 inhibition): appearance of the MUS81-independent DSBs
- Effect on the RPA-ssDNA interaction (RPA-ssDNA interaction): nor interferes with the RPA-ssDNA interaction
